Where a name gives a salt, the structure may show the parent alone. Read-outs that look alike come from different tables or passages of the source.
Legend:
[1] = system: extracellular levels of acetylcholine in medial prefrontal cortex; assay: Acetylcholine modulation in medial prefrontal cortex (microdialysis); assay type: in vivo, male Wistar rats; conditions: for mean AUC of percent change in acetylcholine levels, combination compared to donepezil alone: test compound in combination with donepezil (1 mg/kg, s.c.)
Source text: Male Wistar rats (240-300 g body weight) were stereotaxically implanted with a microdialysis guide cannula in medial prefrontal cortex (mPFC; AP: +3.2 mm, ML: −0.5 mm, DV: −3.0 mm) under isoflurane anesthesia. Co-ordinates were taken according to atlas for the rat brain (Paxinos and Watson 2004) with reference points taken from bregma and vertical from the skull. The rats were allowed to recover individually for four days in a round bottom Plexiglas bowl with free access to feed and water.
After surgical recovery of 4 days, male Wistar rats were connected to dual quartz lined two-channel liquid swivel (Instech, UK) on a counter balance lever arm, which allowed unrestricted movements of the animal. Sixteen hours before start of the study, a pre-equilibrated microdialysis probe (2 mm dialysis membrane) was inserted into mPFC through the guide cannula. On the day of study, probe was perfused with artificial cerebrospinal fluid (aCSF; NaCl 147 mM, KCl2.7 mM, MgCl2 1 mM, CaCl2. 2H2O 1.2 mM, pH 7.4) at a flow rate of 1.5 μL/min and a stabilization period of 2 h was maintained. Five basal samples were collected at 20 min intervals prior to the treatment of test Compounds (3 or 10 mg/kg, p.o.) or vehicle. […] Dialysate samples were collected for an additional period of 4 h post treatment of test compounds. Dialysates were stored below −50° C. prior to analysis.
Acetylcholine concentrations in dialysates were quantified using LC-MS/MS based method.
All microdialysis data for acetylcholine was plotted as percent change from mean dialysate basal concentrations with 100% defined as the average of five pre-dose values. […] Statistical significance was considered at a p value less than 0.05. Incorrect probe placement was considered as criteria to reject the data from animal.

[2] = system: stimulation evoked theta levels in dorsal hippocampus; assay: Theta modulation in dorsal hippocampus of anesthetized rats; assay type: in vivo, male Wistar rats
Source text: Male Wistar rats (240-320 g) were anesthetized by intraperitoneal administration of urethane (1.2 to 1.5 g/kg) for implantation of a catheter in the left femoral vein. The animal was placed in a stereotaxic frame for implanting an electrode (stainless steel wire, Plastics One) into the dorsal hippocampus (AP, −3.8 mm; ML, +2.2 mm; DV, −2.5 mm; Paxinos and Watson, 2004). Bipolar stimulating electrode (untwisted stainless steel wires, separated by 0.75-1.0 mm at their tips, Plastics One) was implanted in the Nucleus Pontis Oralis (NPO; AP, −7.8 mm; ML, 1.8 mm; DV, −6.0 mm; Paxinos and Watson, 2004). Additionally one electrode was implanted into the cerebellum which served as a reference. Hippocampal θ rhythm was evoked via a 6-s electrical stimulation train (20-160 μA, 0.3-ms pulse duration, 250 Hz) delivered to the NPO at a rate of 0.01 trains/s with a Grass S88 stimulator and PSIU6 stimulus isolation unit (Grass Medical Instruments, Quincy, Mass.). EEG was recorded at a rate of 1000 Hz using Ponemah (Version 5.2) software and stored for off-line analysis using NeuroScore (Version 3.0). Baseline amplitude level was achieved by using the current required to elicit θ rhythm to 50% of the maximal amplitude under control conditions.
Power in the θ rhythm frequency in the stimulation period during the 30-min baseline period was calculated and the % changes in these measures post treatment were calculated. […] Statistical significance was considered at a p value less than 0.05.

[3] = target: T1, Human histamine-3 receptor (Homo sapiens, UniProt Q9Y5N1); assay: Determination of Ki value at human histamine-3 receptor (radioligand binding, [3H] R-α-methylhistamine)
T1 construct: expressed in transfected cells; host or cells: CHO cells
Procedure: Test compounds were evaluated according to the following procedures to determine the Ki value at human and rat histamine-3 receptor.
• Receptor source: Rat brain frontal cortex or recombinant human cDNA expressed in CHO cells • Radioligand: [3H] R-α-methylhistamine • Final ligand concentration: [3.0 nM] • Non-specific determinant: R-α-methylhistamine (100 μM) • Reference compound: R-α-methylhistamine • Positive control: R-α-methylhistamine Incubation Conditions:
Increasing concentrations of test compounds or standard were incubated with membrane receptors and radioligand in 5 mM MgC12 and 50 mM TRIS-HCl (pH 7.4) for 60 minutes at room temperature. The reaction was terminated by rapid vacuum filtration onto the glass fiber filters. Radioactivity trapped onto the filters was determined and compared to the control values in order to ascertain any interactions of the test compound(s) with either cloned human or rat receptor binding site.

[4] = test compound (3 or 10 mg/kg, p.o.) in combination with donepezil (1 mg/kg, s.c.)
[5] = Compound 1 (1 mg/kg, i.v.) in combination with donepezil (0.3 mg/kg, i.v.)

T1 sequence (Q9Y5N1 whole entry): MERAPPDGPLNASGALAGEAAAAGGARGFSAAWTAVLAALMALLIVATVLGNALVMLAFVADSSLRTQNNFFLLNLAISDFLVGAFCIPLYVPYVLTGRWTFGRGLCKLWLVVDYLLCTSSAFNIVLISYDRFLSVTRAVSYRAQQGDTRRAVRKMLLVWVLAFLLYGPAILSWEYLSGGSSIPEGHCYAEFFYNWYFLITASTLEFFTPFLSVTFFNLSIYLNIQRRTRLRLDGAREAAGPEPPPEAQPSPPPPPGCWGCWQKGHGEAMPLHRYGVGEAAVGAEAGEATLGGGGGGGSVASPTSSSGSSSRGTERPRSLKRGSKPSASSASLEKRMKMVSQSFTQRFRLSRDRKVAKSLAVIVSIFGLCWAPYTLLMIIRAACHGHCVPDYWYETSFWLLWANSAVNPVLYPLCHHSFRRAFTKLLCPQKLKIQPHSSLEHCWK

SMILES: CCN(C)C(=O)Oc1cccc([C@H](C)N(C)C)c1 [rivastigmine, reference compound]
- maximum cortical acetylcholine levels, % of basal levels ([1]; rivastigmine alone, 0.5 mg/kg, s.c., mPFC dialysate): 612±104 % of basal levels

SMILES: COc1cc2c(cc1OC)C(=O)C(CC1CCN(Cc3ccccc3)CC1)C2 (centres unmarked) [donepezil, reference compound]
- effect on hippocampal theta power ([2]; donepezil alone, 0.3 mg/kg, i.v.): increase in hippocampal theta power

SMILES: CC(C)N1CCC(Oc2ccc(NC(=O)CN3CCOCC3)cc2)CC1 [Compound 3, N-[4-(1-Isopropylpiperidin-4-yloxy)phenyl]-2-(morpholin-4-yl)acetamide]
- Ki ([3]; recombinant human cDNA expressed in CHO cells, [3H] R-α-methylhistamine 3.0 nM, read-out: Human histamie-3 receptor Ki): 8.3 nM
- peak acetylcholine levels, % of pre-dose levels [1, 4]: 1874±184 % of pre-dose levels
- mean AUC of percent change in acetylcholine levels, combination compared to donepezil alone [1]: significantly higher

SMILES: O=C(CN1CCOCC1)Nc1ccc(OC2CCN(C3CCC3)CC2)cc1 [Compound 1, N-[4-(1-Cyclobutylpiperidin-4-yloxy)phenyl]-2-(morpholin-4-yl)acetamide dihydrochloride]
- mean AUC of theta power, combination compared to donepezil [2, 5]: significantly higher
- peak theta power levels, % of pre-dose levels [2, 5]: 163±15 % of pre-dose levels
- peak acetylcholine levels, % of pre-dose levels [1, 4]: 1676±150 % of pre-dose levels
- peak acetylcholine levels, % of pre-dose levels ([1]; test compound (3 or 10 mg/kg, p.o.) in combination with rivastigmine (0.5 mg/kg, s.c.)): 1276±213 % of pre-dose levels
- mean AUC of percent change in acetylcholine levels, combination compared to donepezil alone [1]: significantly higher
- mean AUC of percent change in acetylcholine levels, combination compared to rivastigmine alone ([1]; test compound in combination with rivastigmine (0.5 mg/kg, s.c.)): higher

SMILES: O=C(CN1CCOCC1)Nc1ccc(OC2CCN(C3CC3)CC2)cc1 [Compound 2, N-[4-(1-Cyclopropylpiperidin-4-yloxy)phenyl]-2-(morpholin-4-yl)acetamide tartrate]
- Ki [3]: 19.9 nM
- peak acetylcholine levels, % of pre-dose levels [1, 4]: 3057±468 % of pre-dose levels
- mean AUC of percent change in acetylcholine levels, combination compared to donepezil alone [1]: significantly higher

From patent US10603323B2, “Combination of histamine-3 receptor inverse agonists with acetylcholinesterase inhibitors” (priority 2016, dated 2020)
